In patent publication US12077503B2, “Substituted cyclic amides and their use as herbicides” (FMC CORPORATION, priority 2015, dated 2024):

Tests used:
Type in all cases: in vivo
[1] = system: ducksalad (Heteranthera limosa); assay: Test B flooded paddy test; conditions: Heteranthera limosa, 250 g ai/ha, Flood; 0 to 100 scale where 0 is no effect and 100 is complete control; read-out: Ducksalad plant response rating
How it was run: (§1)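 Rating scale 0–100 (visual, vs untreated controls) after a 13–15 d greenhouse period; application to the flood layer, 3 cm above soil and maintained; plants at 2-leaf stage when treated.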

[2] = system: sedge, umbrella (small-flower umbrella sedge, Cyperus difformis); assay: Test B flooded paddy test; conditions: Cyperus difformis, 250 g ai/ha, Flood; 0 to 100 scale where 0 is no effect and 100 is complete control; read-out: Sedge, Umbrella plant response rating
How it was run: as §1

[3] = system: barnyardgrass (Echinochloa crus-galli); assay: Test B flooded paddy test; conditions: Echinochloa crus-galli, 250 g ai/ha, Flood; 0 to 100 scale where 0 is no effect and 100 is complete control; read-out: Barnyardgrass plant response rating
How it was run: as §1

rice (Oryra sativa) = assay: Test B flooded paddy test; conditions: Oryza sativa, 250 g ai/ha, Flood; 0 to 100 scale where 0 is no effect and 100 is complete control; read-out: Rice plant response rating
How it was run: as §1

[4] = system: wheat (Triticum aestivum); assay: Test A postemergence; conditions: Triticum aestivum, post-emergence, 240 h, Postemergence, read-out: Wheat plant response rating (0 to 100 scale); for plant injury at 125 g/ha: 125 g ai/ha, visual rating about 10 d after treatment; for plant injury at 31 g/ha: 31 g ai/ha, 0 is no effect, 100 is complete control
How it was run: (§2)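 Treatment is preemergence as a directed soil spray after planting, or postemergence at the one- to two-leaf stage, with test chemical in a non-phytotoxic solvent mixture plus surfactant. Plants stay in the greenhouse about 10 d before visual injury scoring on a 0 to 100 scale versus untreated controls.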

Kochia (Kochia scoparia) [5] = assay: Test A postemergence; conditions: Bassia scoparia, post-emergence, 240 h, Postemergence, read-out: Kochia plant response rating (0 to 100 scale); for pest or weed control at 125 g/ha: 125 g ai/ha, visual rating about 10 d after treatment; for pest or weed control at 31 g/ha: 31 g ai/ha, 0 is no effect, 100 is complete control
How it was run: as §2

corn (Zea mays) = assay: Test A postemergence; conditions: Zea mays, post-emergence, 240 h, Postemergence, read-out: Corn plant response rating (0 to 100 scale); for plant injury at 125 g/ha: 125 g ai/ha, visual rating about 10 d after treatment; for plant injury at 31 g/ha: 31 g ai/ha, 0 is no effect, 100 is complete control
How it was run: as §2

[6] = system: Galium (catchweed bedstraw, Galium aparine); assay: Test A postemergence; conditions: Galium, post-emergence, 240 h, Postemergence, read-out: Galium plant response rating (0 to 100 scale); for pest or weed control at 125 g/ha: 125 g ai/ha, visual rating about 10 d after treatment; for pest or weed control at 31 g/ha: 31 g ai/ha, 0 is no effect, 100 is complete control
How it was run: as §2

[7] = system: blackgrass (Alopecurus myosuroides); assay: Test A postemergence; conditions: Alopecurus myosuroides, post-emergence, 240 h, Postemergence, read-out: Blackgrass plant response rating (0 to 100 scale); for pest or weed control at 125 g/ha: 125 g ai/ha, visual rating about 10 d after treatment; for pest or weed control at 31 g/ha: 31 g ai/ha, 0 is no effect, 100 is complete control
How it was run: as §2

[8] = system: ryegrass, Italian (Italian ryegrass, Lolium multiflorum); assay: Test A postemergence; conditions: Lolium multiflorum, post-emergence, 240 h, Postemergence, read-out: Ryegrass, Italian plant response rating (0 to 100 scale); for pest or weed control at 125 g/ha: 125 g ai/ha, visual rating about 10 d after treatment; for pest or weed control at 31 g/ha: 31 g ai/ha, 0 is no effect, 100 is complete control
How it was run: as §2

[9] = system: ragweed (common ragweed, Ambrosia elatior); assay: Test A postemergence; conditions: Ambrosia artemisiifolia, post-emergence, 240 h, Postemergence, read-out: Ragweed plant response rating (0 to 100 scale); for pest or weed control at 125 g/ha: 125 g ai/ha, visual rating about 10 d after treatment; for pest or weed control at 31 g/ha: 31 g ai/ha, 0 is no effect, 100 is complete control
How it was run: as §2

[10] = system: barnyardgrass (Echinochloa crus-galli); assay: Test A postemergence; conditions: Echinochloa crus-galli, post-emergence, 240 h, Postemergence; for pest or weed control at 125 g/ha: 125 g ai/ha, visual rating about 10 d after treatment, read-out: Barnyardgrass plant response rating (0 to 100 scale, 0 no effect, 100 complete control); for pest or weed control at 31 g/ha: 31 g ai/ha, 0 is no effect, 100 is complete control, read-out: Barnyardgrass plant response rating (0 to 100 scale)
How it was run: as §2

[11] = system: pigweed (Amaranthus retroflexus); assay: Test A postemergence; conditions: Amaranthus retroflexus, post-emergence, 240 h, Postemergence, read-out: Pigweed plant response rating (0 to 100 scale); for pest or weed control at 125 g/ha: 125 g ai/ha, visual rating about 10 d after treatment; for pest or weed control at 31 g/ha: 31 g ai/ha, 0 is no effect, 100 is complete control
How it was run: as §2

[12] = system: giant foxtail (Setaria faberii); assay: Test A postemergence; conditions: Setaria faberi, post-emergence, 240 h, Postemergence, read-out: Foxtail, Giant plant response rating (0 to 100 scale); for pest or weed control at 125 g/ha: 125 g ai/ha, visual rating about 10 d after treatment; for pest or weed control at 31 g/ha: 31 g ai/ha, 0 is no effect, 100 is complete control
How it was run: as §2

Kochia (Kochia scoparia) [13] = assay: Test A preemergence; conditions: Bassia scoparia, pre-emergence, 240 h, 0 to 100 scale where 0 is no effect and 100 is complete control, read-out: Kochia plant response rating; for pest or weed control at 31 g/ha: 31 g ai/ha, Preemergence; for pest or weed control at 125 g/ha: 125 g ai/ha, preemergence, visual injury rating, approximately 10 d
How it was run: as §2

[14] = system: ryegrass, Italian (Italian ryegrass, Lolium multiflorum); assay: Test A preemergence; conditions: Lolium multiflorum, pre-emergence, 240 h, 0 to 100 scale where 0 is no effect and 100 is complete control, read-out: Ryegrass, Italian plant response rating; for pest or weed control at 31 g/ha: 31 g ai/ha, Preemergence; for pest or weed control at 125 g/ha: 125 g ai/ha, preemergence, visual injury rating, approximately 10 d
How it was run: as §2

[15] = system: ragweed (common ragweed, Ambrosia elatior); assay: Test A preemergence; conditions: Ambrosia artemisiifolia, pre-emergence, 240 h, 0 to 100 scale where 0 is no effect and 100 is complete control, read-out: Ragweed plant response rating; for pest or weed control at 31 g/ha: 31 g ai/ha, Preemergence; for pest or weed control at 125 g/ha: 125 g ai/ha, preemergence, visual injury rating, approximately 10 d
How it was run: as §2

[16] = system: barnyardgrass (Echinochloa crus-galli); assay: Test A preemergence; conditions: Echinochloa crus-galli, pre-emergence, 240 h, 0 to 100 scale where 0 is no effect and 100 is complete control, read-out: Barnyardgrass plant response rating; for pest or weed control at 31 g/ha: 31 g ai/ha, Preemergence; for pest or weed control at 125 g/ha: 125 g ai/ha, preemergence, visual injury rating, approximately 10 d
How it was run: as §2

[17] = system: pigweed (Amaranthus retroflexus); assay: Test A preemergence; conditions: Amaranthus retroflexus, pre-emergence, 240 h, 0 to 100 scale where 0 is no effect and 100 is complete control, read-out: Pigweed plant response rating; for pest or weed control at 31 g/ha: 31 g ai/ha, Preemergence; for pest or weed control at 125 g/ha: 125 g ai/ha, preemergence, visual injury rating, approximately 10 d
[18] = system: giant foxtail (Setaria faberii); assay: Test A preemergence; conditions: Setaria faberi, pre-emergence, 240 h, 0 to 100 scale where 0 is no effect and 100 is complete control, read-out: Foxtail, Giant plant response rating; for pest or weed control at 31 g/ha: 31 g ai/ha, Preemergence; for pest or weed control at 125 g/ha: 125 g ai/ha, preemergence, visual injury rating, approximately 10 d
How it was run: as §2

| SMILES | pest or weed control at 250 g/ha [1] | pest or weed control at 250 g/ha [2] | pest or weed control at 250 g/ha [3] | pest or weed control at 250 g/ha (rice (Oryra sativa)) | plant injury at 125 g/ha [4] | plant injury at 31 g/ha [4] | pest or weed control at 125 g/ha (Kochia (Kochia scoparia) [5]) | pest or weed control at 31 g/ha (Kochia (Kochia scoparia) [5]) | plant injury at 125 g/ha (corn (Zea mays)) | plant injury at 31 g/ha (corn (Zea mays)) | pest or weed control at 125 g/ha [6] | pest or weed control at 31 g/ha [6] | pest or weed control at 125 g/ha [7] | pest or weed control at 31 g/ha [7] | pest or weed control at 125 g/ha [8] | pest or weed control at 31 g/ha [8] | pest or weed control at 125 g/ha [9] | pest or weed control at 31 g/ha [9] | pest or weed control at 125 g/ha [10] | pest or weed control at 31 g/ha [10] | other results |
| --- | --- | --- | --- | --- | --- | --- | --- | --- | --- | --- | --- | --- | --- | --- | --- | --- | --- | --- | --- | --- | --- |
| CN1C[C@H](c2csc3c2CCC3)[C@@H](C(=O)Nc2cccc(F)c2F)C1=O [Compound 1278] | 90% | 0% | 60% | 35% | 0% | 0% | 20% | 0% | 0% | 0% | 0% | 0% | 0% | 0% | 0% | 0% | 30% | 0% | 100% | 70% | pest or weed control at 125 g/ha [11]: 0%; pest or weed control at 31 g/ha [11]: 0%; pest or weed control at 125 g/ha [12]: 80%; pest or weed control at 31 g/ha [12]: 50%; pest or weed control at 31 g/ha (Kochia (Kochia scoparia) [13]): 30%; pest or weed control at 125 g/ha (Kochia (Kochia scoparia) [13]): 30%; pest or weed control at 31 g/ha [14]: 0%; pest or weed control at 125 g/ha [14]: 30%; pest or weed control at 31 g/ha [15]: 20%; pest or weed control at 125 g/ha [15]: 100%; pest or weed control at 31 g/ha [16]: 80%; pest or weed control at 125 g/ha [16]: 100%; pest or weed control at 31 g/ha [17]: 0%; pest or weed control at 125 g/ha [17]: 90%; pest or weed control at 31 g/ha [18]: 100%; pest or weed control at 125 g/ha [18]: 100% |
| Cc1ccc([C@H]2CN(C)C(=O)[C@@H]2C(=O)Nc2ccccc2)cc1 [Compound 1291] | 100% | 0% | 90% | 30% | 30% | 0% | 0% | 0% | 30% | 0% | 20% | 0% | 0% | 0% | 0% | 0% | 0% | 0% | 90% | 70% | pest or weed control at 125 g/ha [11]: 0%; pest or weed control at 31 g/ha [11]: 0%; pest or weed control at 125 g/ha [12]: 80%; pest or weed control at 31 g/ha [12]: 70%; pest or weed control at 31 g/ha (Kochia (Kochia scoparia) [13]): 0%; pest or weed control at 125 g/ha (Kochia (Kochia scoparia) [13]): 40%; pest or weed control at 31 g/ha [14]: 0%; pest or weed control at 125 g/ha [14]: 20%; pest or weed control at 31 g/ha [15]: 0%; pest or weed control at 125 g/ha [15]: 0%; pest or weed control at 31 g/ha [16]: 100%; pest or weed control at 125 g/ha [16]: 100%; pest or weed control at 31 g/ha [17]: 0%; pest or weed control at 125 g/ha [17]: 100%; pest or weed control at 31 g/ha [18]: 100%; pest or weed control at 125 g/ha [18]: 100% |
